Experimental data from ChEMBL document CHEMBL1817641, “Synthesis and biological evaluation of some novel N-aryl-1,4-dihydropyridines as potential antitubercular agents” (Bioorg Med Chem Lett, 2011).
In brackets after ≈: the same amount, converted by molar mass.

Key:
[1] = Selectivity index, ratio of IC50 for african green monkey Vero cells to MIC for Mycobacterium tuberculosis H37Rv; assay type: functional
[2] = tested on: Mycobacterium tuberculosis; assay: Antitubercular activity against Mycobacterium tuberculosis H37Rv at 6.25 ug/mL after 4 days by MABA assay; assay type: functional; conditions: 96 h
[3] = tested on: Mycobacterium tuberculosis; assay: Antitubercular activity against Mycobacterium tuberculosis H37Rv after 4 days by MABA assay; assay type: functional; conditions: 96 h
Vero = assay: Cytotoxicity against african green monkey Vero cells; assay type: cell-based; conditions: Chlorocebus sabaeus

SMILES | Selectivity Index [1] | inhibition at 6.25 µg/mL [2] | MIC [3] | IC50 (Vero)
CCOC(=O)C1=C(C)N(c2ccccc2)C(C)=C(C(=O)OCC)C1c1cn(-c2ccccc2)nc1-c1ccccc1 | >6.4 | 96% | 1.56 µg/mL (≈ 2.85 µM) | > 10 µg/mL
CCOC(=O)C1=C(C)N(c2ccccc2C)C(C)=C(C(=O)OCC)C1c1cn(-c2ccccc2)nc1-c1ccccc1 | >3.2 | 95% | 3.13 µg/mL (≈ 5.57 µM) | > 10 µg/mL
CCOC(=O)C1=C(C)N(c2cccc(C)c2)C(C)=C(C(=O)OCC)C1c1cn(-c2ccccc2)nc1-c1ccccc1 | >6.4 | 98% | 1.56 µg/mL (≈ 2.78 µM) | > 10 µg/mL
CCOC(=O)C1=C(C)N(c2ccc(C)cc2)C(C)=C(C(=O)OCC)C1c1cn(-c2ccccc2)nc1-c1ccccc1 |  | 48% | 48 µg/mL (≈ 85.5 µM) | 
CCOC(=O)C1=C(C)N(c2ccccc2Cl)C(C)=C(C(=O)OCC)C1c1cn(-c2ccccc2)nc1-c1ccccc1 | >500 | 100% | 0.02 µg/mL (≈ 0.0344 µM) | > 10 µg/mL
CCOC(=O)C1=C(C)N(c2cccc(Cl)c2)C(C)=C(C(=O)OCC)C1c1cn(-c2ccccc2)nc1-c1ccccc1 | 4.5 | 97% | 1.56 µg/mL (≈ 2.68 µM) | 7.08 µg/mL (≈ 12.2 µM)
CCOC(=O)C1=C(C)N(c2ccc(Cl)cc2)C(C)=C(C(=O)OCC)C1c1cn(-c2ccccc2)nc1-c1ccccc1 |  | 74% |  | 
CCOC(=O)C1=C(C)N(c2ccccc2OC)C(C)=C(C(=O)OCC)C1c1cn(-c2ccccc2)nc1-c1ccccc1 |  | 39% |  | 
CCOC(=O)C1=C(C)N(c2cccc(OC)c2)C(C)=C(C(=O)OCC)C1c1cn(-c2ccccc2)nc1-c1ccccc1 |  | 55% |  | 
CCOC(=O)C1=C(C)N(c2ccc(OC)cc2)C(C)=C(C(=O)OCC)C1c1cn(-c2ccccc2)nc1-c1ccccc1 |  | 33% |  | 
CC(=O)C1=C(C)N(c2ccccc2)C(C)=C(C(C)=O)C1c1cn(-c2ccccc2)nc1-c1ccccc1 |  | 48% |  | 
CC(=O)C1=C(C)N(c2ccccc2C)C(C)=C(C(C)=O)C1c1cn(-c2ccccc2)nc1-c1ccccc1 | >3.2 | 97% | 3.13 µg/mL (≈ 6.24 µM) | > 10 µg/mL
CC(=O)C1=C(C)N(c2cccc(C)c2)C(C)=C(C(C)=O)C1c1cn(-c2ccccc2)nc1-c1ccccc1 | >1.6 | 98% | 6.25 µg/mL (≈ 12.5 µM) | > 10 µg/mL
CC(=O)C1=C(C)N(c2ccc(C)cc2)C(C)=C(C(C)=O)C1c1cn(-c2ccccc2)nc1-c1ccccc1 |  | 34% |  | 
CC(=O)C1=C(C)N(c2ccccc2Cl)C(C)=C(C(C)=O)C1c1cn(-c2ccccc2)nc1-c1ccccc1 |  | 59% |  | 
CC(=O)C1=C(C)N(c2cccc(Cl)c2)C(C)=C(C(C)=O)C1c1cn(-c2ccccc2)nc1-c1ccccc1 |  | 76% |  | 
CC(=O)C1=C(C)N(c2ccc(Cl)cc2)C(C)=C(C(C)=O)C1c1cn(-c2ccccc2)nc1-c1ccccc1 |  | 29% |  | 
COc1ccccc1N1C(C)=C(C(C)=O)C(c2cn(-c3ccccc3)nc2-c2ccccc2)C(C(C)=O)=C1C |  | 25% |  | 
COc1cccc(N2C(C)=C(C(C)=O)C(c3cn(-c4ccccc4)nc3-c3ccccc3)C(C(C)=O)=C2C)c1 |  | 77% |  | 
COc1ccc(N2C(C)=C(C(C)=O)C(c3cn(-c4ccccc4)nc3-c3ccccc3)C(C(C)=O)=C2C)cc1 |  | 69% |  | 
NNC(=O)c1ccncc1 [ISONIAZID] |  |  | 0.03 µg/mL (≈ 0.219 µM) | 
